Results taken from patent US11993598B2, “Compounds for inhibiting EGFR kinase, preparation methods and uses thereof” (WIGEN BIOMEDICINE TECHNOLOGY (SHANGHAI) CO., LTD., priority 2019, dated 2024).
One block for each compound: values may come before it.

Key:
[1] = tested on: A431 (wild type EGFR, skin cancer); assay: Cell proliferation assay (MTT); assay type: cell-based; conditions: Homo sapiens, A-431, 72 h, three days
Method: (§1) A431 cells, H1975 and Ba/F3 cells expressing various mutant EGFR were harvested from exponential phase cultures and seeded in 96-well plates at a cell density of 3000 per well for A431 and H1975, and 10000 per well for Ba/F3 cells. After overnight attachment, compounds were 3-fold serially diluted and applied to cells at 30 μM, 10 μM, 3 μM, 1 μM, 0.3 μM, […], 0.03 μM and 0.01 μM with triplicates, and incubated for three days. 20 μL of 5 mg/mL MTT was added afterwards followed by the further addition of 50 μL 10% SDS together with 5% isobutyl alcohol in 0.01 mol/L HCl. The plates were incubated overnight. Absorbance (A) at a wavelength of 570 nm was quantified. Percentage of inhibition was used for the calculation of IC50 based on the bliss method.

HER2 = HER2 (Homo sapiens, UniProt P04626); assay: HER2 biochemical activity assay (HTRF)
Method: (§2) Assay 1: Wild-type EGFR, HER2 and HER4, and mutant EGFR biochemical activity assay
(§3) 10 nL of Serially diluted compounds were transferred to assay plates using the labcyte Echo 550, and 5 uL of 2× enzymes in assay buffer were subsequently dispensed. The assay plate was covered with an adhesive plate seal, and briefly spinned for 30 s at 1000 g. 5 uL of 2× TK-substrate-biotin and ATP mixed in assay buffer were added.
(§4) IC50 was calculated and analyzed using a 4 parametric logistic model.

EGFR-WT = EGFR-WT (Homo sapiens, UniProt P00533); assay: Wild-type EGFR biochemical activity assay (HTRF)
Method: as §2, §3, §4

EGFR D770-N771insNPG = EGFR D770-N771insNPG (Homo sapiens, UniProt P00533, INS770NPG); assay: Mutant EGFR biochemical activity assay (HTRF)
Method: as §2, §3, §4

EGFR Del19 = EGFR Del19 (Homo sapiens, UniProt P00533); assay: Mutant EGFR biochemical activity assay (HTRF)
Method: as §2, §3, §4

EGFR L792F = EGFR L792F (Homo sapiens, UniProt P00533, L792F); assay: Mutant EGFR biochemical activity assay (HTRF)
Method: as §2, §3, §4

EGFR D770GY = EGFR D770GY (Homo sapiens, UniProt P00533, D770Y/INS769G); assay: Mutant EGFR biochemical activity assay (HTRF)
Method: as §2, §3, §4

[2] = molecular target: EGFR D770_N771insNPG T790M (Homo sapiens, UniProt P00533, INS770NPG/T790M); assay: Mutant EGFR biochemical activity assay (HTRF); conditions: read-out: IC50 (nM) EGFR D770_N771 insNPG T790M
Method: as §2, §3, §4

EGFR T790M = EGFR T790M (Homo sapiens, UniProt P00533, T790M); assay: Mutant EGFR biochemical activity assay (HTRF)
Method: as §2, §3, §4

EGFR T790M/L858R = EGFR T790M/L858R (Homo sapiens, UniProt P00533, L858R/T790M); assay: Mutant EGFR biochemical activity assay (HTRF)
Method: as §2, §3, §4

EGFR A763_Y764insFHEA = EGFR A763_Y764insFHEA (Homo sapiens, UniProt P00533, INS763FHEA); assay: Mutant EGFR biochemical activity assay (HTRF); conditions: read-out: IC50 (nM) EGFR A763_Y764 insFHEA
Method: as §2, §3, §4

EGFR L792H = EGFR L792H (Homo sapiens, UniProt P00533, L792H); assay: Mutant EGFR biochemical activity assay (HTRF)
Method: as §2, §3, §4

HER4 = HER4 (Homo sapiens, UniProt Q15303); assay: HER4 biochemical activity assay (HTRF)
Method: as §2, §3, §4

[3] = molecular target: Ba/F3_EGFR D770_N771insSVD (Homo sapiens, UniProt P00533, DUP768-770, cells depend on it); assay: Cell proliferation assay (MTT); assay type: cell-based; conditions: three days, read-out: Ba/F3_EGFR D770_N771insSVD IC50
Method: as §1

[4] = molecular target: Ba/F3_EGFR V769_D770insASV (Homo sapiens, UniProt P00533, DUP767-769, cells depend on it); assay: Cell proliferation assay (MTT); assay type: cell-based; conditions: three days, read-out: Ba/F3_EGFR V769_D770insASV IC50
Method: as §1

[5] = tested on: H1975 (EGFR L858R/T790M, NSCLC); assay: Cell proliferation assay (MTT); assay type: cell-based; conditions: Homo sapiens, NCI-H1975, 72 h, three days
Method: as §1

LU-0387 = assay: Xenograft mouse model LU-0387; assay type: in vivo, nude mice; conditions: LU-0387, 0.5 mg/kg poziotinib
LU-01-0493 = assay: Patient derived xenograft (PDX) mouse model; assay type: in vivo, nude mice; conditions: LU-01-0493, 0.5 mg/kg poziotinib
Method: (§5) Assay 3. In vivo studies in cell line-derived (CDX) and patient derived xenografts (PDX) mouse models
(§6) Cells (H1975) or tissue pieces (LU0493 and LU0426) were implanted subcutaneously into the left armpit of nude mice. When the average tumor volume reached 100-150 mm^3, mice were randomized by tumor volume and treated with vehicle, compound 1 or poziotinib respectively. Tumor volume and body weight were measured twice per week. Mice were sacrificed on day 21 or day 28, and tumor volume and terminal body weight were recorded. The relative tumor volume, percent of treatment/control values and tumor growth inhibition were calculated and statistics was performed.
(§7) Terminal body weight changes were calculated as percentage of body changes from day 1 to day 21.

LU-01-0426 = assay: Patient derived xenograft (PDX) mouse model; assay type: in vivo, nude mice; conditions: LU-01-0426, 0.5 mg/kg poziotinib
Method: as §5, §6, §7

Sequence of EGFR-WT (P00533 25-1210): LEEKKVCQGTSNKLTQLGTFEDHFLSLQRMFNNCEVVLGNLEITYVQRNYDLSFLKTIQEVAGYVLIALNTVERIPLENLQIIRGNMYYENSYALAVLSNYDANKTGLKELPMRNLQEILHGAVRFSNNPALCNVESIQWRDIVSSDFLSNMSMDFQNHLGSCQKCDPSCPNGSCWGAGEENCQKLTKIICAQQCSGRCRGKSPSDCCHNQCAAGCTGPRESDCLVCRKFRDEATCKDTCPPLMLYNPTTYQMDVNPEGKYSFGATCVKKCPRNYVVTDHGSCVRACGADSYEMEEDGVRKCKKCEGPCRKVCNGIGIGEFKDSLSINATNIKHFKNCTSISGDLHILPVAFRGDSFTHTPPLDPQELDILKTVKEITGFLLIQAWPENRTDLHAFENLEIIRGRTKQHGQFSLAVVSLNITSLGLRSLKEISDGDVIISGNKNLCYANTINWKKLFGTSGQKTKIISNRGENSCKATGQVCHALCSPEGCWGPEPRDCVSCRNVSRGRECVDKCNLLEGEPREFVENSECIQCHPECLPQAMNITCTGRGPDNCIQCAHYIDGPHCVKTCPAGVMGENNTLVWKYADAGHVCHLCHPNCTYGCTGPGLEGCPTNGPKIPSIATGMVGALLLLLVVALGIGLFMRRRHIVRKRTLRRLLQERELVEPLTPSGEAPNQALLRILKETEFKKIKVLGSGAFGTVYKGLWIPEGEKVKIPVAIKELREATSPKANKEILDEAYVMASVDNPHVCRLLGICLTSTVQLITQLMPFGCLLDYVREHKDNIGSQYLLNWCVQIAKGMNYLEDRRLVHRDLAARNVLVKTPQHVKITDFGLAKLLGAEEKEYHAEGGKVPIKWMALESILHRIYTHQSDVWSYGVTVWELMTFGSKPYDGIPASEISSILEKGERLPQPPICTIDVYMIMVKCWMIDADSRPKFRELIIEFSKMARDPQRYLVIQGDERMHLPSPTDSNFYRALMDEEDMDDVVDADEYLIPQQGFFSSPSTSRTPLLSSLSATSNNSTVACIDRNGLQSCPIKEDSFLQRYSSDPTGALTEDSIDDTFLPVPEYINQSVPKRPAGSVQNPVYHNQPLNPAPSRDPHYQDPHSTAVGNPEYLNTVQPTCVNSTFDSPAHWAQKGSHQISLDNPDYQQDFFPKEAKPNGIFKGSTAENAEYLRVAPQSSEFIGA
Sequence of EGFR Del19 (P00533 with tags, fused parts or gaps DEL746-750): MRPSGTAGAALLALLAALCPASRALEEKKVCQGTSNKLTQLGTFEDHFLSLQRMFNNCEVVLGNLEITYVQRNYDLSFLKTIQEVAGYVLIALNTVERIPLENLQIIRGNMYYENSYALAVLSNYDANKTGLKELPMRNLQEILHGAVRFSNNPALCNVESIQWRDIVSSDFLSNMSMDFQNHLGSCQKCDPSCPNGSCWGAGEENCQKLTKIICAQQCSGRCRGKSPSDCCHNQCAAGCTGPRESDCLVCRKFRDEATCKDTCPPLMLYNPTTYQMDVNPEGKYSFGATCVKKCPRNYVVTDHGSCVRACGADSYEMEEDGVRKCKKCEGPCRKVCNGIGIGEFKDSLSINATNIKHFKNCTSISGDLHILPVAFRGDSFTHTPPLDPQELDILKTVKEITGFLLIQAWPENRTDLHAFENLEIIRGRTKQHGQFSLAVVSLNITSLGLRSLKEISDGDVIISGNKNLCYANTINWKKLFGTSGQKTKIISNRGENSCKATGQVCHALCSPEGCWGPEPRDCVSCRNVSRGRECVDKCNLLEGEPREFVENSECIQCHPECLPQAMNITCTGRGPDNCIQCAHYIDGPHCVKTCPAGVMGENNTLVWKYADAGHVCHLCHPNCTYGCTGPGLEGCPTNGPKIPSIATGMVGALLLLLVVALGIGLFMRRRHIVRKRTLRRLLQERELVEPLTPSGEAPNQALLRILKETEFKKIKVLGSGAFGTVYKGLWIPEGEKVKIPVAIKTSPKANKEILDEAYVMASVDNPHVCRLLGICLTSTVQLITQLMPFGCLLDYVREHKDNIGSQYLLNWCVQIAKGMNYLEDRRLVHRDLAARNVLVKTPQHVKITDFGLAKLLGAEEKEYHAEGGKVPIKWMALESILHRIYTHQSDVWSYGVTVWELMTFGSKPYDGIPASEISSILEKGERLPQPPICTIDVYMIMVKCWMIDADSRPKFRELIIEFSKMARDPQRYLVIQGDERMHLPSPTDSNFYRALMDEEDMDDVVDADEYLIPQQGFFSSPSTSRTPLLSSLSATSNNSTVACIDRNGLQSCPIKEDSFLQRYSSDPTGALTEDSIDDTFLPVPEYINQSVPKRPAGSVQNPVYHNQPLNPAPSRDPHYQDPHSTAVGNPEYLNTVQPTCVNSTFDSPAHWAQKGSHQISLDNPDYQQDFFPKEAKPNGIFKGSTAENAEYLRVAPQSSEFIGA
Sequence of EGFR L792H (P00533 25-1210 L792H): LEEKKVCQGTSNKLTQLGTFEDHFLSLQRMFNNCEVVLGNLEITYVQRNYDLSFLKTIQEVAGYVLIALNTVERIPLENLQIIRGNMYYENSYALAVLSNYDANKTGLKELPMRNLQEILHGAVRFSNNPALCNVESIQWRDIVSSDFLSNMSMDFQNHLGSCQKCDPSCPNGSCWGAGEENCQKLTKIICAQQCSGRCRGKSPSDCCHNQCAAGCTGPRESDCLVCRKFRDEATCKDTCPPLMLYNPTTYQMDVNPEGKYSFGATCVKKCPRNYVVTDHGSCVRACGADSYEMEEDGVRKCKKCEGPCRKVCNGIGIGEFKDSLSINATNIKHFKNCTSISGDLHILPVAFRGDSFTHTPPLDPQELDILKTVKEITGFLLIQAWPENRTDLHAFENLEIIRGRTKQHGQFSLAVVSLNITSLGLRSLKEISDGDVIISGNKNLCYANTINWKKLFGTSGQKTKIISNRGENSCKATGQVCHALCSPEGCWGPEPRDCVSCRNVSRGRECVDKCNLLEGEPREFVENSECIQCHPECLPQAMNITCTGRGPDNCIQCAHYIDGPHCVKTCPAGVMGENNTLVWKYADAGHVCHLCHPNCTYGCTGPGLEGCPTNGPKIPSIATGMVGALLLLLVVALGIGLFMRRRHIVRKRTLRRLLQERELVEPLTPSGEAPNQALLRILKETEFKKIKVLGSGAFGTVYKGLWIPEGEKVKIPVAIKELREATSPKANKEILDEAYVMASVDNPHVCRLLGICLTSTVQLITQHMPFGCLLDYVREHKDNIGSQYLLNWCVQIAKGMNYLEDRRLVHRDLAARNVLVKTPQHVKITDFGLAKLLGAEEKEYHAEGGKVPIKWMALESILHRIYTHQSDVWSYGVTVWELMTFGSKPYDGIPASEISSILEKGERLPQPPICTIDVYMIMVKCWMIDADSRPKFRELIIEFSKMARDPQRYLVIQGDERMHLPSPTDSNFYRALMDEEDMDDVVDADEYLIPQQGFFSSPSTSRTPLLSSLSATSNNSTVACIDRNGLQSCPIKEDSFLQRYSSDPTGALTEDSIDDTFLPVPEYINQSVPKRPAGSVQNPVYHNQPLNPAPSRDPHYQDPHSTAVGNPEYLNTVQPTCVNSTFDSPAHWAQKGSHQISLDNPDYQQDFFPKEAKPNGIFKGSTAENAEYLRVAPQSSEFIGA
Sequence of EGFR D770-N771insNPG (P00533 with tags, fused parts or gaps INS770NPG limits assumed): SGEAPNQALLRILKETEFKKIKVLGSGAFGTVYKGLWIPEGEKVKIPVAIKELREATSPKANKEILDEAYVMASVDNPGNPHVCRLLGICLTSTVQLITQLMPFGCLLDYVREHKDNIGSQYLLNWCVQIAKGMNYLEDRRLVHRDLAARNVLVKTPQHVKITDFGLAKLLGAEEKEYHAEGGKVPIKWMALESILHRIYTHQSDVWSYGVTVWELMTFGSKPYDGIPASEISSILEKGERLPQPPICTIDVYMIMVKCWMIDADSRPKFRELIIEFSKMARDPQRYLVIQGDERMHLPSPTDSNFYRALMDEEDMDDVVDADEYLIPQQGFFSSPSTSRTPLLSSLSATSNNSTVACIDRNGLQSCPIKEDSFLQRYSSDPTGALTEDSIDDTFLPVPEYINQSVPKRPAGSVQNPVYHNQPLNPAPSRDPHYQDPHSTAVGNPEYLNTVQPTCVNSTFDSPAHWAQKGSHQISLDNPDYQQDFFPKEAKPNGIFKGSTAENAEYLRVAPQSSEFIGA
Sequence of EGFR D770_N771insNPG T790M (P00533 with tags, fused parts or gaps INS770NPG/T790M limits assumed): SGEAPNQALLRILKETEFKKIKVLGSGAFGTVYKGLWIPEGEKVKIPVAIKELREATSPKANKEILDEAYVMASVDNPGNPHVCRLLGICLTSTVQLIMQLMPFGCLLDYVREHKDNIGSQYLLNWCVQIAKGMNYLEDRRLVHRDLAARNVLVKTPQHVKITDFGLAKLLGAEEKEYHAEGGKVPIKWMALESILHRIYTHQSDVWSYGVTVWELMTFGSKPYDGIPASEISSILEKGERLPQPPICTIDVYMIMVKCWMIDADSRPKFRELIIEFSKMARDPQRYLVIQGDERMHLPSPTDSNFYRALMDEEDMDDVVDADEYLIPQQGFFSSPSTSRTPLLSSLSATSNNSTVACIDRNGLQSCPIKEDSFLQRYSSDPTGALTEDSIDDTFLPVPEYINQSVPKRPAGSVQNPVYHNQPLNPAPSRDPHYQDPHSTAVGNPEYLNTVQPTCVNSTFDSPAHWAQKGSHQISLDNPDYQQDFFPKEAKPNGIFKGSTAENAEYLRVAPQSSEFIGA

GI50 [3]: 5.13 nM
IC50 [1]: 256 nM
GI50 [4]: 14.3 nM
IC50 [5]: 32.2 nM
SMILES: [2H]C([2H])([2H])N(C)CCN(C)c1cc(OC)c(Nc2nccc(-n3c(=O)n4c5c(cc(F)cc53)CCC4)n2)cc1NC(=O)C=C [Compound 28, N-(5-((4-(8-fluoro-2-oxo-5,6-dihydro-4H-imidazo[4,5,1-ij]quinolin-1(2H)-yl)pyrimidin-2-yl)amino)-4-methoxy-2-(methyl(2-(methyl(methyl-d3)amino)ethyl)amino)phenyl) acrylamide]

GI50 [3]: 9.03 nM
IC50 [1]: 188 nM
GI50 [4]: 23.4 nM
IC50 [5]: 21 nM
SMILES: [2H]C([2H])([2H])N(CCN(C)c1cc(OC)c(Nc2nccc(-n3c(=O)n4c5c(cc(F)cc53)CCC4)n2)cc1NC(=O)C=C)C([2H])([2H])[2H] [Compound 29, N-(2-((2-(bis(methyl-d3)amino)ethyl)(methyl)amino)-5-((4-(8-fluoro-2-oxo-5,6-dihydro-4H-imidazo[4,5,1-ij]quinolin-1(2H)-yl)pyrimidin-2-yl)amino)-4-methoxyphenyl)acrylamide]

GI50 [3]: 5.61 nM
IC50 [1]: 301 nM
GI50 [4]: 13.9 nM
IC50 [5]: 14.6 nM
SMILES: [2H]C([2H])([2H])Oc1cc(N(C)CCN(C)C)c(NC(=O)C=C)cc1Nc1nccc(-n2c(=O)n3c4c(cc(F)cc42)CCC3)n1 [Compound 42, N-(2-((2-(dimethylamino)ethyl)(methyl)amino)-5-((4-(8-fluoro-2-oxo-5,6-dihydro-4H-imidazo[4,5,1-ij]quinolin-1(2H)-yl)pyrimidin-2-yl)amino)-4-(methoxy-d3)phenyl)acrylamide]

GI50 [3]: 6.65 nM
IC50 [1]: 254 nM
GI50 [4]: 16.6 nM
IC50 [5]: 19.8 nM
SMILES: [2H]C([2H])([2H])Oc1cc(N(C)CCN(C)C([2H])([2H])[2H])c(NC(=O)C=C)cc1Nc1nccc(-n2c(=O)n3c4c(cc(F)cc42)CCC3)n1 [Compound 43, N-(5-((4-(8-fluoro-2-oxo-5,6-dihydro-4H-imidazo[4,5,1-ij]quinolin-1(2H)-yl)pyrimidin-2-yl)amino)-4-(methoxy-d3)-2-(methyl(2-(methyl(methyl-d3)amino)ethyl)amino)phenyl) acrylamide]

Continued, compound first:

SMILES: C=CC(=O)Nc1cc(Nc2nccc(-n3c(=O)n4c5c(cccc53)CCC4)n2)c(OC)cc1N(C)CCN(C)C [Compound 2, N-(2-((2-(dimethylamino)ethyl)(methyl)amino)-4-methoxy-5-((4-(2-oxo-5,6-dihydro-4H-imidazo[4,5,1-ij]quinolin-1(2H)-yl)pyrimidin-2-yl)amino)phenyl)acrylamide]
IC50 (HER2): 47 nM
IC50 (EGFR-WT): 1.23 nM
IC50 (EGFR D770-N771insNPG): 0.0815 nM
IC50 (EGFR Del19): 0.107 nM
IC50 (EGFR L792F): 1.65 nM
IC50 (EGFR D770GY): 0.276 nM
IC50 [2]: 0.0567 nM
IC50 (EGFR T790M): 0.0509 nM
IC50 (EGFR T790M/L858R): 0.0724 nM
IC50 (EGFR A763_Y764insFHEA): 0.299 nM
IC50 (EGFR L792H): 46.9 nM
IC50 (HER4): 1.35 nM
GI50 [3]: 9.15 nM
IC50 [1]: 71.1 nM
GI50 [4]: 23.8 nM
IC50 [5]: 23 nM

SMILES: C=CC(=O)Nc1cc(Nc2nccc(-n3c(=O)n4c5c(cc(F)cc53)CCC4)n2)c(OC)nc1N(C)CCN(C)C [Compound 3, N-(2-((2-(dimethylamino)ethyl)(methyl)amino)-5-((4-(8-fluoro-2-oxo-5,6-dihydro-4H-imidazo[4,5,1-ij]quinolin-1(2H)-yl)pyrimidin-2-yl)amino)-6-methoxypyridin-3-yl)acrylamide]
GI50 [3]: 3.18 nM
IC50 [1]: 389 nM
GI50 [4]: 13.9 nM
IC50 [5]: 16 nM

SMILES: C=CC(=O)Nc1cc(Nc2nccc(-n3c(=O)n4c5c(cccc53)CCC4)n2)c(OC)nc1N(C)CCN(C)C [Compound 4, N-(2-((2-(dimethylamino)ethyl)(methyl)amino)-6-methoxy-5-((4-(2-oxo-5,6-dihydro-4H-imidazo[4,5,1-ij]quinolin-1(2H)-yl)pyrimidin-2-yl)amino)pyridin-3-yl)acrylamide]
IC50 (HER2): 34.6 nM
IC50 (EGFR-WT): 0.552 nM
IC50 (EGFR D770-N771insNPG): 0.0554 nM
IC50 (EGFR Del19): 0.233 nM
IC50 (EGFR L792F): 0.415 nM
IC50 (EGFR D770GY): 0.13 nM
IC50 [2]: 0.0514 nM
IC50 (EGFR T790M): 0.0573 nM
IC50 (EGFR T790M/L858R): 0.0841 nM
IC50 (EGFR A763_Y764insFHEA): 0.143 nM
IC50 (EGFR L792H): 15.6 nM
IC50 (HER4): 0.694 nM
GI50 [3]: 5.08 nM
IC50 [1]: 154 nM
GI50 [4]: 15.7 nM
IC50 [5]: 12.4 nM

SMILES: C=CC(=O)Nc1cc(Nc2nccc(-n3c(=O)n4c5c(cc(F)cc53)CCC4)n2)c(OCC(F)(F)F)nc1N(C)CCN(C)C [Compound 5, N-(2-((2-(dimethylamino)ethyl)(methyl)amino)-5-((4-(8-fluoro-2-oxo-5,6-dihydro-4H-imidazo[4,5,1-ij]quinolin-1(2H)-yl)pyrimidin-2-yl)amino)-6-(2,2,2-trifluoroethoxy)pyridin-3-yl)acrylamide]
GI50 [3]: 5.07 nM
IC50 [1]: 154 nM
GI50 [4]: 14.9 nM
IC50 [5]: 15.8 nM

SMILES: C=CC(=O)Nc1cc(Nc2nccc(-n3c(=O)n4c5c(cccc53)CCC4)n2)c(OCC(F)(F)F)nc1N(C)CCN(C)C [Compound 6, N-(2-((2-(dimethylamino)ethyl)(methyl)amino)-5-((4-(2-oxo-5,6-dihydro-4H-imidazo[4,5,1-ij]quinolin-1(2H)-yl)pyrimidin-2-yl)amino)-6-(2,2,2-trifluoroethoxy)pyridin-3-yl)acrylamide]
IC50 (HER2): 25.1 nM
IC50 (EGFR-WT): 0.451 nM
IC50 (EGFR D770-N771insNPG): 0.0688 nM
IC50 (EGFR Del19): 0.14 nM
IC50 (EGFR L792F): 4.09 nM
IC50 (EGFR D770GY): 0.0489 nM
IC50 [2]: 0.0834 nM
IC50 (EGFR T790M): 0.0656 nM
IC50 (EGFR T790M/L858R): 0.0865 nM
IC50 (EGFR A763_Y764insFHEA): 0.149 nM
IC50 (EGFR L792H): > 100 nM
IC50 (HER4): 0.725 nM
GI50 [3]: 3.47 nM
IC50 [1]: 140 nM
GI50 [4]: 13.3 nM
IC50 [5]: 14.8 nM

SMILES: C=CC(=O)Nc1cc(Nc2nccc(-n3c(=O)n4c5c(cc(F)cc53)CCC4)n2)c(OC)cc1N(C)CCN1CCC1 [Compound 25, N-(2-((2-(azetidin-1-yl)ethyl)(methyl)amino)-5-((4-(8-fluoro-2-oxo-5,6-dihydro-4H-imidazo[4,5,1-ij]quinolin-1(2H)-yl)pyrimidin-2-yl)amino)-4-methoxyphenyl)acrylamide]
GI50 [3]: 12.4 nM
IC50 [1]: 386 nM
GI50 [4]: 23.4 nM
IC50 [5]: 25.4 nM

SMILES: C=CC(=O)N1CCC(Oc2cc3c(Nc4ccc(Cl)c(Cl)c4F)ncnc3cc2OC)CC1 [poziotinib, reference compound]
TGI (%) (LU-0387): 74.49%
Terminal body weight changes (%) (LU-0387; day 1 to day 21): 0%
TGI (%) (LU-01-0493): 56.8%
Terminal body weight changes (%) (LU-01-0493; day 1 to day 21): −12.4%
TGI (%) (LU-01-0426): 91.3%
Terminal body weight changes (%) (LU-01-0426; day 1 to day 21): −7.4%
